# Measured values as given in patent US20090239868A1 (priority 2007, published 2009).
# “Also recorded” adds a separate entry of the source.
# Tests used:
# [1] = test system: TGF-β induced PAI-1 production; assay: TGF-β induced PAI-1 production in HepG2 cells (Human Serpin E1/PAI-1 DuoSet); format: cell-based
# Description: HepG2 cells were seeded on a 96-well culture plate by 2×10^4 cells/well, and were incubated for 24 hours in the MEM medium containing 1% NEAA (Non-Essential Amino Acids), 1 mM pyruvate, and 10% FBS. Then, the medium was changed to a MEM medium containing 1% NEAA, 1 mM pyruvate and 1% FBS, and the cells were further incubated for 24 hours. Subsequently, after the medium was changed to a MEM medium containing 1% NEAA, 1 mM pyruvate and 1% FBS, and then the cells were treated with the test substances (final concentration: 1 μM or 0.1 μM) for one hour, TGF-β1 (final concentration: 1 ng/mL) was added and the cells were further incubated for 24 hours. As controls, a culture solution added TGF-β1 only, and a culture solution cultured without neither the test substances nor TGF-β1 were prepared. After the incubation, the PAI-1 amount was measured using Human Serpin E1/PAI-1 DuoSet (R&D Systems). The PAI-1 amount when treated with TGF-β1 only being “100%”, and the PAI-1 amount when treated without neither the test substances nor TGF-β1 being “0%”, the PAI-1 inhibition ratios of each test substance were calculated.
# [2] = test system: TGF-β induced PAI-1 production; assay: TGF-β induced PAI-1 production in HT1080 cells (Western blotting); format: cell-based; conditions: Homo sapiens, HT-1080, TGF-β1 10 ng/mL, 6-hours incubation
# Description: After incubating HT1080 cells for 48 hours in the MEM medium containing 10% FBS (Fetal Bovine Serum), the medium was changed to a MEM medium containing 1% FBS, and TGF-β1 (final concentration: 10 ng/mL) only, or TGF-β1 (final concentration: 10 ng/mL) and the test substances were added and incubated. As a control, a culture solution without neither TGF-β1 nor the test substances was prepared. After 6-hours incubation, the culture fluids were collected, and the PAI-1 amounts in the culture fluids were measured by the Western blotting. The PAI-1 amount when TGF-β1 only was added being “100%,” and the PAI-1 amount in the control being “0%,” PAI-1 amounts at each concentration of the test substances (PAI-1 inhibition ratios) were calculated, and the concentrations of the compounds, which inhibited PAI-1 production to 50% (IC50) in amount, were obtained.
# [3] = test system: PAI-1; assay: Immunostaining of PAI-1 expression cells among cells infiltrated in the lung, cigarette smoke exposed guinea pigs; format: in vivo, guinea pig
# Description: Using the smoking exposure system (INH06-CIGOIA, MIPS Inc.), 6-week old guinea pigs (Std: male Hartley, Japan SLC, Inc.) were exposed to smoke of 40 cigarettes (Peace (Registered Trademark), Japan Tobacco, Inc.) a day (20 cigarettes twice) for 25 continuous days (Chronic Obstructive Pulmonary Disease (COPD) model group: Control group: n=10). To these guinea pigs, from the day of exposure to the smoke of tobacco, the compound (1) (30 mg/kg/day or 100 mg/kg/day) or prednisolone (10 mg/kg/day) was continuously administered orally once a day for 25 days (Compound (1) 30 mg administered group: n=5, Compound (1) 100 mg administered group: n=5, Prednisolone administered group: n=5). Furthermore, as a normal group, guinea pigs (n=5) exposed to air without the administration of the compound (1) and prednisolone were prepared. On the following day of the last exposure, after preparing paraffin sections in the lungs of each guinea pig, collagen was stained by the Masson-trichrome method, and the accumulations of collagen in the alveoli were measured by the area rate with the image analysis.
# Next, the above paraffin section was stained by the immunostaining method using an anti PAI-1 antibody (PAI-1H-135; Santa Cruz; 250-fold dilution), and the ratio of PAI-1 expression cells to the total cell numbers infiltrated in the lung was measured. […]
# [4] = test system: cardiac infarction (ischemia-reperfusion) model rats; assay: Fibrosis ratio in left ventricle cardiac muscle, cardiac infarction (ischemia-reperfusion) model rats, Azan-Mallory stain; format: in vivo, rat; conditions: p.o., once a day for 28 days, control 7.5 ± 1.1
# Description: After the 8-week old rats (SPF: male SD, Japan SLC, Inc.) were anesthetized with Pentobarbital Sodium, their hearts were exteriorized, and the left anterior descending coronary arteries (LAD) were ligated by a suture needle with a thread. 30 minutes later, the ligations were removed, and the blood was reperfused for 24 hours. After that, the compound (1) (10 mg/kg/day, 30 mg/kg/day, 100 mg/kg/day) was orally administered once a day for 28 continuous days. Moreover, as a control, rats to which the compound (1) was not administered after the reperfusion (cardiac infarction (ischemia-reperfusion) model rats) were prepared. On the 29th day after the reperfusion, after preparing paraffin sections of cardiac muscle in the left ventricle of each rat, Azan-Mallory stain was carried out, the ratios of the stained area occupying the myocardial necrosis distant sites were obtained as the ratios of fibrosis by the image analyses.
# [5] = test system: PAI-1; assay: PAI-1 concentration in plasma of type II diabetes patients with obesity (Human PAI-1 ELISA Kit); format: in vivo; conditions: 200 mg orally twice a day for 12 weeks, plasma at 2, 4, 8, 12 weeks, FIG. 1
# Description: To 10 patients of the type II diabetes with obesity where PAI-1 overproduction was recognized, the compound (1) was administered orally 200 mg each time twice a day (after breakfast and after dinner) for 12 weeks. Blood was collected from each patient just before the administration of the compound (1) and 2, 4, 8, and 12 weeks later, and the PAI-1 concentration in plasma was measured using Human PAI-1 ELISA Kit (AssayPro).
# [6] = test system: mustard oil infusion rats (cystitis rat); assay: Bladder fibrosis score, mustard oil infusion rats (cystitis rat), Azan stain; format: in vivo; conditions: 100 mg/kg/day orally for 10 days; control 2.6±0.1; p<0.01 Wilcoxon test
# Description: A polyethylene tube was inserted to the urethra of the 7 week-old rats (SPF: male Crj, Charles River Japan, Inc), and 0.4 mL of 5% mustard oil (diluted with liquid paraffin including 20% allyl isothiocyanate) was infused into the bladder. 60 minutes later, after withdrawing the liquid in the bladder with suctioning, the inside of the bladder was rinsed with saline. For 10 days including 3 days before the infusion of the mustard oil and 7 days after the infusion of the mustard oil, the compound (1) (100 mg/kg/day) was orally administered once a day (Compound (1) administered rat: n=6). Furthermore, as a control, mustard oil infusion rats (cystitis rat: n=6) to which the compound (1) was not administered were prepared. On the 8th day after the infusion of the mustard, the bladders were removed to prepare paraffin sections, the degrees of fibrosis were scored by Azan stain, and the evaluations were conducted. For the index of the scoring, those that have no abnormalities to the normal tissues being “1,” those that have minor fibrosis being “2,” those that have mild fibrosis being “3,” those that have moderate fibrosis being “4,” and those that have severe fibrosis being “5” were used. As a result, although the score of the control group was 2.6±0.1, the compound (1) administered group was 2.0±0.2, and a significant difference was confirmed (p<0.01: Wilcoxon test).
# [7] = test system: PAI-1 gene expression induced by PMA; conditions: J. Immunol., Vol. 165, pp. 3154-3161, 2000; cited from earlier work
compound,measurement,setting,value
O=C(Nc1cc(C(F)(F)F)cc(C(F)(F)F)c1)c1cc(Cl)ccc1O [(2)],Inhibition Ratio (PAI-1),[1]; Compound Concentration: 0.1 μM,94.8%
same,Inhibition Ratio (PAI-1),[1]; Compound Concentration: 1 μM,>90%
same,IC50,"[1]; Homo sapiens, TGF-β1 1 ng/mL, 24 hours",~50 nM
same,IC50,[2],5 nM
O=C(Nc1cc(C(F)(F)F)ccc1C(F)(F)F)c1cc(Br)ccc1O [(3)],Inhibition Ratio (PAI-1),[1]; Compound Concentration: 1 μM,>90%
same,IC50,[2],83 nM
O=C(Nc1cc(C(F)(F)F)cc(C(F)(F)F)c1)c1cc(Cl)ccc1OC(=O)N1CCOCC1 [Compound (1)],total number of the infiltrating cells versus normal group,[3]; compound (1) 100 mg administered group,at the same level
same,ratio of PAI-1 expression cells to the total number of infiltrating cells in the lung,"[3]; oral once a day for 25 days, FIG. 3",decreased; also recorded: improved to the level of the normal group
same,Fibrosis ratio,[4]; 10 mg/kg,5.5 ± 0.4%
same,Fibrosis ratio,[4]; 30 mg/kg,4.9 ± 0.4%
same,Fibrosis ratio,[4]; 100 mg/kg,4.3 ± 0.5%
same,concentration of PAI-1 in blood,[5],decreased
same,fibrosis score (1 no abnormalities to 5 severe fibrosis),[6],2.0±0.2
C[C@@H]1C[C@@H]([C@H](O)CC2CC(=O)NC(=O)C2)C(=O)[C@@H](C)C1 [cycloheximide],PAI-1 gene expression induced by PMA,[7],inhibiting substance
